Measured values: patent US20050208084A1, “Use of alkylamidomandelates as flavourings” (priority 2002, published 2005)

Experiments:
[1] = Tasting the mandelic acid alkylamides (sensory panel, ethanolic solution diluted in 11% sugar solution, swallowed); type: in vivo; details: for estimation of pungency: scale of 1 (very weak) to 9 (very strong), 6-8 testers
Method: The substance to be tasted is dissolved in ethanol and the ethanolic solution is then diluted with an 11% sugar solution (final concentration: c). For tasting, in each case approximately 5 ml of the sugar solution are swallowed. If the threshold value of the substance is known, a value just above the threshold value is chosen for the tasting. A group of 6-8 testers tasted the solutions.
Where possible, the impression of pungency was estimated on a scale of 1 (very weak) to 9 (very strong).

[2] = cited from earlier work

COc1cc(CNC(=O)CCCCCCC(C)C)ccc1O [Dihydrocapsaicin, reference compound]
taste profile ([1]; 100 ppb in 11% sugar solution): slightly delayed onset of effect in pharyngeal cavity, burning, aggressive, no development of heat

CCCCCCCCNC(=O)C(O)c1ccc(OC)c(O)c1 (centres unmarked) [no. 6, 2-(3-Hydroxy-4-methoxyphenyl)-2-hydroxy-N-octylacetamide]
taste profile ([1]; 1 ppm in 11% sugar solution): slightly pungent, particularly on the tongue, slight tingling, rapidly disappears again | estimation of pungency ([1]; 1 ppm in 11% sugar solution): 3

CCCCCCCCCNC(=O)C(O)c1ccc(O)c(OC)c1 (centres unmarked) [no. 10, 2-(4-Hydroxy-3-methoxyphenyl)-2-hydroxy-N-nonylacetamide]
taste profile ([1]; 10 ppm in 11% sugar solution): immediate onset of pungency; similar to capsaicin | estimation of pungency ([1]; 10 ppm in 11% sugar solution): 8

CCCCCCCNC(=O)C(O)c1ccc(O)c(OC)c1 (centres unmarked) [no. 8, 2-(4-Hydroxy-3-methoxyphenyl)-2-hydroxy-N-heptylacetamide]
taste profile ([1]; 10 ppm in 11% sugar solution): pungency develops; burning, slightly over-ripe | estimation of pungency ([1]; 10 ppm in 11% sugar solution): 7

CCCCCCCCNC(=O)C(O)c1ccc(O)c(OC)c1 (centres unmarked) [no. 9, 2-(4-Hydroxy-3-methoxyphenyl)-2-hydroxy-N-octylacetamide]
taste profile ([1]; 1 ppm in 11% sugar solution): no pungency initially, develops suddenly, very intense and long-lasting, ginger pungency | estimation of pungency ([1]; 1 ppm in 11% sugar solution): 8

CCCCCCCCNC(=O)C(O)c1ccc(O)c(O)c1 (centres unmarked) [no. 4, 2-(3,4-Dihydroxyphenyl)-2-hydroxy-N-octylacetamide]
taste profile ([1]; 10 ppm in 11% sugar solution): pungency develops slowly; stinging, rough, slightly spicy | estimation of pungency ([1]; 10 ppm in 11% sugar solution): 5

CCCCCCCCC(=O)NCc1ccc(O)c(OC)c1 [N-(3-methoxy-4-hydroxybenzyl)nonanoamide, reference compound]
taste profile ([1]; 200 ppb in 11% sugar solution): slightly delayed onset of effect in pharyngeal cavity, little pungency on the tongue, stinging, no development of heat

COc1cc(CNC(=O)CCCC/C=C/C(C)C)ccc1O [Capsaicin, N-(4-hydroxy-3-methoxybenzyl)-8-methyl-(6E)-nonenoamide]
damage occurring in the case of frequent use and overdose ([2]; frequent use and overdose): chronic gastritis, kidney and liver damage | LD50 ([2]; mouse oral): 47 mg
